Source: US12653802B2, “Method for treating lung cancer” (priority 2020, dated 2026)

How the values were obtained:
GR6 tumor = assay: Tumor re-progression in GR6 tumor mice, single and combined treatment with osimertinib (FIG. 3A); type: in vivo; conditions: Compound 35d 100 mg/kg per day, osimertinib 1 mg/kg per day, alone or combined
Procedure: (§1) EGFR-TKIs are currently the standard treatment for NSCLC patients with the EGFR gene mutation. To further test whether the combined use of the diarylheptanoid compound of the present disclosure and known drug can enhance the therapeutic effect of NSCLC, the GR6 tumor mice were divided into 4 groups. One group received 100 mg/kg Compound 35d treatment per day (represented as 35d), another group received 1 mg/kg osimertinib treatment per day (represented as Osi), still another group received the combined treatment of 100 mg/kg Compound 35d and 1 mg/kg osimertinib per day (represented as 35d+Osi), and the other group was the control group without drug treatment.

H1650 cells = assay: Growth inhibition of EGFR gene mutant NSCLC cells, cell survival stained with crystal violet, IC50 (FIG. 1A); type: cell-based; conditions: treated for 3 days, versus parent compound curcumin
Procedure: The EGFR gene mutant NSCLC cells were treated with the diarylheptanoid compounds of the present disclosure, and then the cell survival was stained with crystal violet to measure the IC50 values of the diarylheptanoid compounds of the present disclosure in the EGFR gene mutant NSCLC cells, so as to determine the growth inhibitory effect of the diarylheptanoid compounds of the present disclosure on the EGFR gene mutant NSCLC cells.
EGFR gene mutations in lung cancer are mostly found in exons 18-21, which are the intracellular tyrosine kinase coding region. The most common mutations include E746-A750del in exon 19 and L858R point mutation in exon 21, which account for about 85%-90% of EGFR gene mutations. Tumor cells with these two mutations are sensitive to the EGFR-TKIs, known as activating mutations. Secondary mutations may occur in some tumor cells, and the most common secondary mutation is the T790M mutation in exon 20, which is a drug resistance mutation. […] The H1650 cells have the E746-A750del mutation in exon 19 of the EGFR gene, wherein the CCM represents curcumin and the BDMC represents bisdemethoxycurcumin.

H1975 cells = assay: Cell survival assay in EGFR-TKIs resistant NSCLC cells, IC50 (FIG. 1B); type: cell-based; conditions: treated for 3 days, versus curcumin
Procedure: (§2) Experimentally, another 7 EGFR-TKIs resistant NSCLC cells were treated with Compound 21a, Compound 35a, Compound 35d, Compound 36 or Compound 37, and then the cell survival assay was performed to measure the IC50 values of the diarylheptanoid compounds of the present disclosure in the EGFR-TKIs resistant NSCLC cells, so as to determine the growth inhibitory effect of the diarylheptanoid compounds of the present disclosure on the EGFR-TKIs resistant NSCLC cells.
(§3) Please refer to FIG. 1B, FIG. 1C and FIG. 1D.

GR10 cells = assay: Cell survival assay in gefitinib-resistant NSCLC cells, IC50 (FIG. 1C); type: cell-based; conditions: treated for 3 days, versus curcumin
Procedure: as §2, §3

GR2 cells = assay: as above; type: cell-based; conditions: treated for 3 days, versus curcumin
Procedure: as §2, §3

GR5 cells = assay: as above; type: cell-based; conditions: treated for 3 days, versus curcumin
Procedure: as §2, §3

GR6 cells = assay: as above; type: cell-based; conditions: treated for 3 days, versus curcumin
Procedure: as §2, §3

GR8 cells = assay: as above; type: cell-based; conditions: treated for 3 days, versus curcumin
Procedure: as §2, §3

GR9 cells = assay: as above; type: cell-based; conditions: treated for 3 days, versus curcumin
Procedure: as §2, §3

[1] = Body weight changes in the tumor mice treated with Compound 35d alone (FIG. 2D); type: in vivo; conditions: 100 mg/kg daily, treated for more than 1 month
Procedure: In order to verify the anticancer effect of the diarylheptanoid compound of the present disclosure in vivo, the GR6 tumor mouse model, the GR8 tumor mouse model and the HCC827 tumor mouse model of xenotransplantation were first established, and the GR6 tumor mice, the GR8 tumor mice, and the HCC827 tumor mice were treated with 100 mg/kg of Compound 35d daily for 35 days, and the tumor size and body weight of the GR6 tumor mice, the GR8 tumor mice, and the HCC827 tumor mice were recorded.

[2] = Body weight changes in GR6 tumor mice, single and combined treatment (FIG. 3B); type: in vivo; conditions: Compound 35d 100 mg/kg per day alone or with osimertinib 1 mg/kg per day
Procedure: as §1

| SMILES | tumor size / tumor re-progression in the GR6 tumor mice (GR6 tumor) | inhibitory activity on the growth of the H1650 cells (IC50) compared with curcumin (H1650 cells) | inhibitory activity on the growth of the H1975 cells (IC50) compared with curcumin (H1975 cells) | inhibitory activity on the growth of the GR10 cells (IC50) compared with curcumin (GR10 cells) | inhibitory activity on the growth of the GR2 cells (IC50) compared with curcumin (GR2 cells) | inhibitory activity on the growth of the GR5 cells (IC50) compared with curcumin (GR5 cells) | inhibitory activity on the growth of the GR6 cells (IC50) compared with curcumin (GR6 cells) | inhibitory activity on the growth of the GR8 cells (IC50) compared with curcumin (GR8 cells) | inhibitory activity on the growth of the GR9 cells (IC50) compared with curcumin (GR9 cells) | body weight of the tumor mice [1] | body weight of the GR6 tumor mice [2] |
| --- | --- | --- | --- | --- | --- | --- | --- | --- | --- | --- | --- |
| C=CC(=O)Nc1cc(Nc2nccc(-c3cn(C)c4ccccc34)n2)c(OC)cc1N(C)CCN(C)C [osimertinib] | initially reduced by osimertinib treatment, the treated tumors subsequently re-growth |  |  |  |  |  |  |  |  |  |  |
| COc1cc(/C=C/C(=O)C(C)(C)C(=O)/C=C/c2ccc(OC(=O)C(C)(CO)CO)c(OC)c2)ccc1OC(=O)C(C)(CO)CO [Compound 35a, ((1E,6E)-4,4-dimethyl-3,5-dioxohepta-1,6-diene-1,7-diyl)bis(2-methoxy-4,1-phenylene)bis(3-hydroxy-2-hydroxymethyl)-2-methylpropanoate] |  | significantly better inhibitory activity than the parent compound—curcumin | significantly better inhibitory activity than curcumin | significantly better inhibitory activity than curcumin | significantly better inhibitory activity than curcumin | significantly better inhibitory activity than curcumin | significantly better inhibitory activity than curcumin | significantly better inhibitory activity than curcumin | significantly better inhibitory activity than curcumin |  |  |
| COc1cc(/C=C/C(=O)/C=C(O)/C=C/c2ccc(OC(=O)C(C)(CO)CO)c(OC)c2)ccc1OC(=O)C(C)(CO)CO [Compound 21a, ((1E,3Z,6E)-3-hydroxy-5-oxohepta-1,3,6-triene-1,7-diyl)bis(2-methoxy-4,1-phenylene)bis(3-hydroxy-2-hydroxymethyl)-2-methylpropanoate] |  | significantly better inhibitory activity than the parent compound—curcumin | significantly better inhibitory activity than curcumin | significantly better inhibitory activity than curcumin | significantly better inhibitory activity than curcumin | significantly better inhibitory activity than curcumin | significantly better inhibitory activity than curcumin | significantly better inhibitory activity than curcumin | significantly better inhibitory activity than curcumin |  |  |
| C#CCC(CC#C)(C(=O)/C=C/c1ccc(OC(=O)C(C)(CO)CO)c(OC)c1)C(=O)/C=C/c1ccc(OC(=O)C(C)(CO)CO)c(OC)c1 [Compound 35d, ((1E,6E)-3,5-dioxo-4,4-di(prop-2-yn-1-yl)hepta-1,6-diene-1,7-diyl)bis(2-methoxy-4,1-phenylene)bis(3-hydroxy-2-(hydroxymethyl)-2-methylpropanoate)] |  |  |  |  |  |  |  |  |  | did not decrease significantly | neither the single treatment of Compound 35d nor the combined treatment of Compound 35d and osimertinib can significantly reduce the body weight |
